For data set [1], the target named is T1, human GlyT1c transporter (Homo sapiens, UniProt P48067).
T1 construct: expressed in transfected cells; host or cells: recombinant CHO cells (membranes); the uptake assay names the line hGlyT1c_5_CHO
T1 sequence (P48067 1-706): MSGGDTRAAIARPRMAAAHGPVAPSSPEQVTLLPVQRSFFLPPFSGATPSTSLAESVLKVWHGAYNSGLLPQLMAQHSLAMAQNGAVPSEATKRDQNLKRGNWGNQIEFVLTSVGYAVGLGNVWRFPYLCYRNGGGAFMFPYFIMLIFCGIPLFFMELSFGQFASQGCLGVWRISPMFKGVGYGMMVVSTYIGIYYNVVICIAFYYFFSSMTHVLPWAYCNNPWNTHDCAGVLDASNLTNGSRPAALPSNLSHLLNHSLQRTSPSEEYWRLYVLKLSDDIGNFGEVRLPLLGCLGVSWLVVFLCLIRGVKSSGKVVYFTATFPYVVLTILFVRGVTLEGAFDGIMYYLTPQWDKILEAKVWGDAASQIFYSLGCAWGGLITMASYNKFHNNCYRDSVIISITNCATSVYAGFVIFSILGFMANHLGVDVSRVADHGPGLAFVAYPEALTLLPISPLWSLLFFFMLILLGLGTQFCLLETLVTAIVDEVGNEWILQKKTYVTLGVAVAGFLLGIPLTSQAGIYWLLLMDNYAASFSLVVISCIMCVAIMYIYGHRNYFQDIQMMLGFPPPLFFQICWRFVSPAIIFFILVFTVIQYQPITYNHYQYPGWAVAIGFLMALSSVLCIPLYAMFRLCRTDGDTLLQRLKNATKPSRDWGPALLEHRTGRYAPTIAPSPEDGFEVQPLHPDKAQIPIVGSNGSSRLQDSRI
In words: Radioligand binding assay using recombinant CHO cell membranes expressing human GlyT1. As to conditions: read-out: radioligand binding Kiapp. As for the experimental part: 2. Radioligand Binding Assays Using Recombinant CHO Cell Membranes Expressing Human GlyT1:
Radioligand binding to human GlyT1c transporter-expressing membranes was determined as described in Mezler et al., Molecular Pharmacology 74:1705-1715, 2008.

Data set [2] in a line: Metabolic stability in human liver microsomes (microsomal clearance). In kind it is in vitro ADME. As to conditions: human liver microsomes 0.25 mg protein/ml, 0.5 μM test substance, NADPH 1.0 mM, pH 7.4, 37° C. How it is done:
The metabolic stability of a compound can be measured for example by incubating a solution of this compound with liver microsomes from particular species (for example rat, dog or human) and determining the half-life of the compound under these conditions (R S Obach, Curr Opin Drug Discov Devel. 2001, 4, 36-44). It is possible in this connection to conclude from an observed longer half-life that the metabolic stability of the compound is improved. The stability in the presence of human liver microsomes is of particular interest because it makes it possible to predict the metabolic degradation of the compound in the human liver. Compounds with increased metabolic stability (measured in the liver microsome test) are therefore probably also degraded more slowly in the liver. The slower metabolic degradation in the liver may lead to higher and/or longer-lasting concentrations (active levels) of the compound in the body, so that the elimination half-life of the compounds of the invention is increased. Increased and/or longer-lasting active levels may lead to a better activity of the compound in therapeutic treatment. In addition, an improved metabolic stability may lead to an increased bioavailability after oral administration, because the compound is subject, after absorption in the intestine, to less metabolic degradation in the liver (so-called first pass effect). An increased oral bioavailability may, owing to an increased concentration (active level) of the compound, lead to a better activity of the compound after oral administration.
Metabolic stability was determined as follows:
0.5 μM test substance was preincubated together with human liver microsomes (0.25 mg of microsomal protein/ml) in 0.05 M potassium phosphate buffer of pH 7.4 in microtiter plates at 37° C. for 5 min. The reaction was started by adding NADPH (1.0 mM). After 0, 5, 10, 15, 20 and 30 min, 65 μl aliquots were removed, and the reaction was immediately stopped and cooled with twice the amount of ethanol. The samples were frozen until analyzed. The remaining concentration of undegraded test substance was determined by LC MSMS. The half-life (T½) was determined from the gradient of the signal of test substance/unit time plot, allowing to calculate the half-life of the test substance, assuming first order kinetics, from the decrease in the concentration of the compound with time. The microsomal clearance (mCl) was calculated from mCl=ln 2/T½/(content of microsomal protein in mg/ml)×1000 (modified from references: Di, The Society for Biomolecular Screening, 2003, 453-462; Obach, DMD, 1999 vol 27. N 11, 1350-1359).
For orientation: Microsomes from liver hold many membrane-bound enzymes, among them those of drug oxidation.

A value given as a limit tells only on which side of the number the result lay.

Turning to `CCS(=O)(=O)NCc1cc2c(cc1F)CCCNC2Cc1ccccc1.O=C(O)C(F)(F)F` (stereo not shown) [Example 42, Ethanesulfonic acid (1-benzyl-7-fluoro-2,3,4,5-tetrahydro-1H-benzo[c]azepin-8-ylmethyl)-amide; compound with trifluoro-acetic acid], in data set [1], the Ki was at most 1000 nM. Also, the “human mCl” value in data set [2] is “≦50 μl/min/mg”.

`O=C(O)/C=C/C(=O)O.O=S(=O)(CC1CC1)NCc1cc2c(cc1F)CCCNC2Cc1ccccc1` (stereo not shown) [Example 44, N-(1-Benzyl-7-fluoro-2,3,4,5-tetrahydro-1H-benzo[c]azepin-8-ylmethyl)-C-cyclopropyl-methanesulfonamide; compound with (E)-but-2-enedioic acid]: the Ki in data set [1] is at most 100 nM. Further, the “human mCl” value in data set [2] was “≦50 μl/min/mg”. The like results for `CCCS(=O)(=O)NCCOc1ccc2c(c1)C(Cc1ccccc1)NCCO2` (stereo not shown) [Example 51, Propane-1-sulfonic acid [2-(5-benzyl-2,3,4,5-tetrahydro-benzo[f][1,4]oxazepin-7-yloxy)-ethyl]-amide] were, in that order, at most 1000 nM and “≦100 μl/min/mg”. `CCS(=O)(=O)NCCOc1ccc2c(c1)C(Cc1ccccc1)NCCO2` (stereo not shown) [Example 50, Ethanesulfonic acid [2-(5-benzyl-2,3,4,5-tetrahydro-benzo[f][1,4]oxazepin-7-yloxy)-ethyl]-amide]: in data set [1], the Ki is at most 10000 nM. Further, in data set [2], the “human mCl” value is listed as “≦50 μl/min/mg”. In the case of `CCS(=O)(=O)NCCOc1cc2c(cc1F)CCCNC2Cc1ccccc1` (stereo not shown) [Example 43, Ethanesulfonic acid [2-(1-benzyl-7-fluoro-2,3,4,5-tetrahydro-1H-benzo-[c]azepin-8-yloxy)-ethyl]-amide], the Ki in data set [1] was at most 1000 nM. Moreover, the “human mCl” value in data set [2] is “≦50 μl/min/mg”. Turning to `O=S(=O)(CC1CC1)NCCOc1ccc2c(c1)C(Cc1ccccc1)NCCO2` (stereo not shown) [Example 53, N-[2-(5-Benzyl-2,3,4,5-tetrahydro-benzo[f][1,4]oxazepin-7-yloxy)-ethyl]-C-cyclopropyl-methanesulfonamide], the Ki in data set [1] was at most 1000 nM. In data set [2], the “human mCl” value is on record as “≦100 μl/min/mg”.

Consider `Cn1cnc(S(=O)(=O)NCCOc2ccc3c(c2)C(Cc2ccccc2)NCCO3)c1` (stereo not shown) [Example 48, 1-Methyl-1H-imidazole-4-sulfonic acid [2-(5-benzyl-2,3,4,5-tetrahydro-benzo[f][1,4]oxazepin-7-yloxy)-ethyl]-amide], for which the Ki in data set [1] is at most 100 nM. Moreover, the “human mCl” value in data set [2] is given as “≦50 μl/min/mg”. Take `O=S(=O)(CC1CC1)NCCOc1cc2c(cc1F)CCCNC2Cc1ccccc1` (stereo not shown) [Example 46, N-[2-(1-Benzyl-7-fluoro-2,3,4,5-tetrahydro-1H-benzo[c]azepin-8-yloxy)-ethyl]-C-cyclopropyl-methanesulfonamide]: in data set [1], the Ki was at most 100 nM. In data set [2], the “human mCl” value is given as “≦50 μl/min/mg”.

For the compound `Cn1cnc(S(=O)(=O)NCCOc2cc3c(cc2F)CCCNC3Cc2ccccc2)c1` (stereo not shown) [Example 45, 1-Methyl-1H-imidazole-4-sulfonic acid [2-(1-benzyl-7-fluoro-2,3,4,5-tetrahydro-1H-benzo[c]azepin-8-yloxy)-ethyl]amide], in data set [1], the Ki was at most 100 nM. Also, the “human mCl” value in data set [2] is recorded as “≦50 μl/min/mg”.

In the case of `O=S(=O)(NCCOc1ccc2c(c1)C(Cc1ccccc1)NCCO2)C1CCC1` (stereo not shown) [Example 52, Cyclobutanesulfonic acid [2-(5-benzyl-2,3,4,5-tetrahydro-benzo[f][1,4]oxazepin-7-yloxy)-ethyl]-amide], the Ki in data set [1] was at most 1000 nM. Further, the “human mCl” value in data set [2] is recorded as “≦100 μl/min/mg”. As for `Cn1cc(S(=O)(=O)NCc2ccc3c(c2)C(Cc2ccc(Cl)cc2)NCCC3)cn1` (stereo not shown) [Example 19, 1-Methyl-1H-pyrazole-4-sulfonic acid [1-(4-chloro-benzyl)-2,3,4,5-tetrahydro-1H-benzo-[c]azepin-8-ylmethyl]-amide], the Ki in data set [1] was at most 100 nM. As for `CCS(=O)(=O)NCc1ccc2c(c1)C(Cc1ccc(Cl)cc1)NCCC2` (stereo not shown) [Example 16, Ethanesulfonic acid [1-(4-chloro-benzyl)-2,3,4,5-tetra-hydro-1H-benzo[c]azepin-8-ylmethyl]-amide], in data set [1], the Ki is at most 10000 nM. Take `Cn1cnc(S(=O)(=O)NCc2ccc3c(c2)C(Cc2cccc(F)c2)NCCC3)c1` (stereo not shown) [Example 22, 1-Methyl-1H-imidazole-4-sulfonic acid [1-(3-fluoro-benzyl)-2,3,4,5-tetrahydro-1H-benzo[c]azepin-8-ylmethyl]-amide]: in data set [1], the Ki is at most 10 nM. Regarding `CCCS(=O)(=O)NCc1ccc2c(c1)C(Cc1ccccc1)NCCC2` (stereo not shown) [Example 32, Propane-1-sulfonic acid (1-benzyl-2,3,4,5-tetrahydro-1H-benzo[c]-azepin-8-ylmethyl)-amide], the Ki in data set [1] was at most 1000 nM. With `Cn1cc(S(=O)(=O)NCCOc2ccc3c(c2)C(Cc2ccccc2)NCCC3)cn1` (stereo not shown) [Example 3, N-(2-(1-Benzyl-2,3,4,5-tetrahydro-1H-benzo[c]azepin-8-yloxy)ethyl)-1-methyl-1H-pyrazole-4-sulfonamide], the Ki in data set [1] was at most 10 nM. Regarding `CCCS(=O)(=O)NCc1ccc2c(c1)C(Cc1ccc(Cl)cc1)NCCC2` (stereo not shown) [Example 14, Propane-1-sulfonic acid [1-(4-chloro-benzyl)-2,3,4,5-tetra-hydro-1H-benzo[c]azepin-8-ylmethyl]-amide], the Ki in data set [1] was at most 1000 nM. Regarding `CCS(=O)(=O)NCc1ccc2c(c1)C(Cc1ccccc1)NCCC2` (stereo not shown) [Example 33, Ethanesulfonic acid (1-benzyl-2,3,4,5-tetrahydro-1H-benzo[c]-azepin-8-ylmethyl)-amide], the Ki in data set [1] was at most 10000 nM. Take `O=S(=O)(CC1CC1)NCCOc1ccc2c(c1)C(Cc1ccc(Cl)cc1)NCCC2` (stereo not shown) [Example 12, N-{2-[1-(4-Chlorobenzyl)-2,3,4,5-tetrahydro-1H-benzo[c]azepin-8-yloxy]-ethyl}-C-cyclopropyl-methanesulfonamide]: the Ki in data set [1] was at most 1000 nM. Turning to `CN1CCCc2ccc(OCCNS(=O)(=O)c3cn(C)cn3)cc2C1Cc1ccccc1` (stereo not shown) [Example 6, 1-Methyl-1H-imidazole-4-sulfonic acid [2-(1-benzyl-2-methyl-2,3,4,5-tetrahydro-1H-benzo[c]azepin-8-yloxy)-ethyl]-amide], the Ki in data set [1] is at most 10 nM. Still for that read-out and setting: then `CCCS(=O)(=O)NCCOc1ccc2c(c1)C(Cc1cccc(F)c1)NCCC2` (stereo not shown) [Example 23, Propane-1-sulfonic acid {2-[1-(3-fluoro-benzyl)-2,3,4,5-tetrahydro-1H-benzo[c]azepin-8-yloxy]-ethyl}-amide], with at most 100 nM; and `CCS(=O)(=O)NCc1ccc2c(c1)C(Cc1cccc(F)c1)NCCC2` (stereo not shown) [Example 29, Ethanesulfonic acid [1-(3-fluoro-benzyl)-2,3,4,5-tetrahydro-1H-benzo[c]azepin-8-ylmethyl]-amide], with at most 1000 nM.

(Values after US9309200B2, “Benzazepine derivatives, pharmaceutical compositions containing them, and their use in therapy” (AbbVie Deutschland GmbH & Co. KG, priority 2011, dated 2016).)
